According to patent US5710160A, “Diphenyl pyridyl ethane derivatives as PDE IV inhibitors” (Merck Frosst Canada, Inc., priority 1996, dated 1998):

Biological target: T1, GST fusion protein of the human recombinant phosphodiesterase IVa (met-248) (Homo sapiens, UniProt P27815)
T1 construct: GST-Met 248 PDE IVa; made in house; host or cells: Sf-9 insect cells (baculovirus expression system)
Experiment: SPA based PDE activity assay (hydrolysis of cAMP to AMP)
Type: biochemical
Settings: 100 nM cAMP; purified GST fusion protein, baculovirus/Sf-9; 10 min at 30° C
Experimental: Phosphodiesterase Scintillation Proximity Assay
CHO-K1 cells were lysed by sonication for 10 secs at a power setting of 50% (Braunsonic Model 2000) in an ice cold solution containing 50 mM Tris, pH 7.5; 1 mM EDTA; and 200 mM b-mercaptoethanol.
The soluble and particulate fractions of the cell were obtained by centrifuging the sonicate for 90 min. at 100,000 x g at 4° C. PDE activity was measured in a solution containing 50 mM Tris, pH 7.5; 10 mM MgCl2; 1 mM EDTA; and 100 nM (or indicated) ^3 H-cAMP (100 ml final volume) in the presence of varying concentrations of inhibitor. The reaction mixture containing enzyme was incubated for 10 min. at 30° C. in 96-well View Plates (Packard), and terminated by the addition of 50 ml Phosphodiesterase Scintillation Proximity Assay (SPA) Beads (Amersham) containing 18 mM ZnSO4. The amount of ^3 H-cAMP hydrolysis was determined by counting the plates in a Wallac 1450 mBeta LSC counter.
SPA based PDE activity assay protocol
Compounds which inhibit the hydrolysis of cAMP to AMP by the type-IV cAMP-specific phosphodiesterases were screened in 96-well plate format as follows:
In a 96 well-plate at 30° C. was added the test compound (dissolved in 2 ul DMSO), 188 ml of substrate buffer containing [2,8-^3 H] adenosine 3',5'-cyclic phosphate (cAMP, 100 nM to 50 μM), 10 mM MgCl2, 1 mM EDTA, 50 mM Tris, pH 7.5. The reaction was initiated by the addition of […] of human recombinant PDE-IV (the amount was controlled so that~10% product was formed in 10 min. at 30° C). The reaction was stopped after 10 min. by the addition of 1 mg of PDE-SPA beads (Amersham). The product AMP generated was quantified on a Microbeta 96-well plate counter. The signal in the absence of enzyme was defined as the background. 100% activity was defined as the signal detected in the presence of enzyme and DMSO with the background subtracted. Percentage of inhibition was calculated accordingly. IC50 value was approximated with a non-linear regression fit of the standard 4-parameter/multiple binding sites equation from a ten point titration.
IC50 values shown in Table 2 were determined with 100 nM cAMP using the purified GST fusion protein of the human recombinant phosphodiesterase IVa (met-248) produced from a baculovirus/Sf-9 expression system.

T1 sequence (P27815 248-886 limits assumed): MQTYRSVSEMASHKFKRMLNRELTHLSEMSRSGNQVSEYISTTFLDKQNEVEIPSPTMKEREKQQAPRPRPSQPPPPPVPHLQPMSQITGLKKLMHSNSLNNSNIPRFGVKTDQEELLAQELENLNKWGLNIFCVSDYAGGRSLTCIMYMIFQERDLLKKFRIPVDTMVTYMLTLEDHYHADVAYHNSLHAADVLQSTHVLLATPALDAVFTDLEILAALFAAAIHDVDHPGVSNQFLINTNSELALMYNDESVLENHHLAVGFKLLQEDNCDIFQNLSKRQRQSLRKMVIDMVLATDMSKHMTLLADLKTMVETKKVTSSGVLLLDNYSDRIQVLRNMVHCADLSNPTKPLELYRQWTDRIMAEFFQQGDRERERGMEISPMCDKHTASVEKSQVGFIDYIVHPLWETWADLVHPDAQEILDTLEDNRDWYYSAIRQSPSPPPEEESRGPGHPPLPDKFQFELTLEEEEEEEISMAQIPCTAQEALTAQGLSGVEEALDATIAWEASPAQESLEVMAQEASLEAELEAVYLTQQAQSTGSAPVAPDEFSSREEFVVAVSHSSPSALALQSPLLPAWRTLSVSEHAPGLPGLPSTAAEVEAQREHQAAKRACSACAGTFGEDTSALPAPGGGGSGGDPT

SMILES	IC50
COc1ccc([C@H](Cc2ccncc2)c2ccc(-c3nnn[nH]3)cc2)cc1OC1CCCC1 [Example 4, (R)-4-{2-(3-Cyclopentyloxy-4-methoxyphenyl)-2-[4-(tetrazol-5-yl)phenyl]ethyl}pyridine]	2 nM
COc1ccc([C@H](Cc2ccncc2)c2ccc(C(C)O)cc2)cc1OC1CCCC1 (stereo partly drawn) [Example 5, (R)-4-{2-(3-Cyclopentyloxy-4-methoxyphenyl)-2-[4-(1-hydroxyethyl)phenyl]ethyl}pyridine]	2 nM
COc1ccc([C@H](Cc2ccncc2)c2ccc(C(C)=O)cc2)cc1OC1CCCC1 [Example 6, (R)-4-[2-(3-Cyclopentyloxy-4-methoxyphenyl)-2-(4-acetylphenyl)ethyl]pyridine]	3 nM
COc1ccc([C@H](Cc2ccncc2)c2ccc(C=NO)cc2)cc1OC1CCCC1 [Example 3, (R)-4-[1-(3-Cyclopentyloxy-4-methoxyphenyl)-2-(4-pyridyl)ethyl]benzaldehyde oxime]	3 nM
COc1ccc([C@H](Cc2ccncc2)c2ccc(C(=O)N3CCCC3)cc2)cc1OC1CCCC1 [Example 2, (R)-4-[2-(3-Cyclopentyloxy-4-methoxyphenyl)-2-(4-pyrrolidinocarbonylphenyl)ethyl]pyridine]	1 nM
COc1ccc([C@H](Cc2ccncc2)c2ccc(C(=O)N3CCN(C)CC3)cc2)cc1OC1CCCC1 [Example 1, (R)-4-{2-(3-Cyclopentyloxy-4-methoxyphenyl)-2-[4-(4-methylpiperazinocarbonyl)pheny]lethyl}pyridine]	0.8 nM

Tested on: right atrial and papillary muscles
Experiment: Effects on cardiac muscle in vitro
Design: species or system guinea pigs
Settings: reference PDE inhibitors; no concentration given
Description: Right atrial and papillary muscles were dissected out from the hearts of guinea pigs and suspended in organ baths for measuring the rate (chronotropic) of spontaneously beating atria and force (inotropic) of the electrically stimulated papillary muscle.

SMILES	direct (chronotropic and inotropic) effects in these preparations
COc1ccc(C2CNC(=O)C2)cc1OC1CCCC1 (stereo not drawn) [rolipram]	do not have any direct effects
Cc1[nH]c(=O)c(C#N)cc1-c1ccncc1 [milrinone]	positive chronotropic and inotropic effects

Tested on: right atrial and papillary muscles
Experiment: not given
Settings: non-specific PDE inhibitor; general statement; cited from earlier work

SMILES	cardiovascular changes
Cn1c(=O)c2[nH]cnc2n(C)c1=O [theophylline]	significant cardiovascular changes such as tachycardia
